Test results published in patent US20250000855A1, “USE OF APOMORPHINE AS THERAPEUTIC AGENT FOR NECROPTOSIS-RELATED DISEASES” (INDUSTRY-ACADEMIC COOPERATION FOUNDATION, YONSEI UNIVERSITY, priority 2021, published 2025).

Tested on: MLKL oligomerization
Assay: MLKL oligomerization (tetramer and octamer bands) by non-reducing or reducing SDS-PAGE
Type: cell-based, human
Details: cytoplasmic and membrane fractions, necroptosis induced with TBZ, FIG. 2 / FIG. 6A
Description: Cells were pretreated with Z-VAD (invivoGen, tlrl-vad) and a compound for 1 hour, and necroptosis was induced with TNF-α (ATGen, TNF0501) and BV6 (Biovision, B1332-5) for the indicated time. The prepared cells were appropriately treated according to analysis (Z-VAD: carbobenzoxy-valyl-alanyl-aspartyl, TNF-α: tumor necrosis factor-α, BV6: 4,4′-(1,6-hexanediyl)bis[N-methyl-L-alanyl-(2S)-2-cyclohexylglycyl-L-prolyl-β-phenyl-L-phenylalaninamide)
Cells were treated with a drug candidate and then collected using centrifugation at 4° C. and 1,500×g for 5 minutes. A supernatant was centrifuged again at 4° C. and 1,500×g for 5 minutes to remove remaining debris, concentrated at 4° C. and 14,000×g for 30 minutes using Amicon ultra-0.5 centrifugal filter unit 10K (Millipore, UFC501096), and stored. […] The extracted protein concentration was measured using a bicinchoninic acid (BCA) protein assay kit (Thermo Fisher Scientific, 23225). […]
To test whether the tetramer and octamer formation of p-MLKL for pore formation in the cell membrane is inhibited by apomorphine (APO), cells that had been treated with each molecule for the indicated time were separated into cytoplasmic and membrane fractions and analyzed through non-reducing or reducing sodium dodecyl sulfate-polyacrylamide gel electrophoresis (SDS-PAGE), and then investigated with specific antibodies (Experimental Method 1-6). […]

SMILES: CN1CCc2cccc3c2[C@H]1Cc1ccc(O)c(O)c1-3 [APO, apomorphine]
- intensities of the tetramer and octamer bands of MLKL: decreased
